The subject of this assay is endothelial cells / vascular system of perfused tissue.

With `CNCC(O)c1ccc(O)c(O)c1` (centres unmarked) [adrenaline], the flow rate entry is on record as “decrease” and the pressure entry is on record as “increase”.

These data come from patent US20260000070A1 (priority 2023, published 2026).
